SMILES strings stand for the structures. Where only a bound is given, the exact number is not on record here.

A short description of data set [1]: Cytotoxicity in mock-infected HeLa cells (tetrazolium/MTT colorimetric assay). The format is cell-based. The settings on record: human. The procedure: (§1) The percent protection against cytopathology caused by viruses (antiviral activity or IC50) achieved by tested compounds and their cytotoxicity (CC50) were both calculated from dose-response curves.
Automated tetrazolium-based colorimetric assays were used for determination of IC50 and CC50 of test compounds. Flat-bottom, 96-well plastic microtiter trays were filled with 180 μl of Eagle's Basal Medium, supplemented with 5% FCS (0% for FLU) and 20 mM Hepes buffer. Subsequently, stock solutions (7.8× final test concentration) of compounds were added in 45 μl volumes to a series of triplicate wells so as to allow simultaneous evaluation of their effects on virus- and mock-infected cells. Five five-fold dilutions were made directly in the microtiter trays using a robot system. Untreated virus controls, and HeLa cell controls were included in each test. Approximately 100 TCID50 of Respiratory Syncytial Virus was added to two of the three rows in a volume of 50 μl. […] Finally, the absorbances were read in an eight-channel computer-controlled photometer (Multiskan MCC, Flow Laboratories) at two wavelengths (540 and 690 nm). The absorbance measured at 690 nm was automatically subtracted from the absorbance at 540 nm, so as to eliminate the effects of non-specific absorption.

Data set [2] relates to Respiratory Syncytial Virus. The data set is described as follows: microbe, parasite or virus in culture. The format is cell-based. To be noted: for SI (selectivity index, CC50 divided by IC50): CC50 (HeLa cells) / IC50 (Respiratory Syncytial Virus); for IC50: human respiratory syncytial virus, 168 h, Respiratory Syncytial Virus in HeLa cells, seven days after infection, tetrazolium-based colorimetric assay, read-out: IC50 (antiviral activity, protection against cytopathology caused by virus). How it is done: as §1
Automated tetrazolium-based colorimetric assays were used for determination of IC50 and CC50 of test compounds. Flat-bottom, 96-well plastic microtiter trays were filled with 180 μl of Eagle's Basal Medium, supplemented with 5% FCS (0% for FLU) and 20 mM Hepes buffer. Subsequently, stock solutions (7.8× final test concentration) of compounds were added in 45 μl volumes to a series of triplicate wells so as to allow simultaneous evaluation of their effects on virus- and mock-infected cells. Five five-fold dilutions were made directly in the microtiter trays using a robot system. Untreated virus controls, and HeLa cell controls were included in each test. Approximately 100 TCID50 of Respiratory Syncytial Virus was added to two of the three rows in a volume of 50 μl. The same volume of medium was added to the third row to measure the cytotoxicity of the compounds at the same concentrations as those used to measure the antiviral activity. After two hours of incubation, a suspension (4×10^5 cells/ml) of HeLa cells were added to all wells in a volume of 50 μl. The cultures were incubated at 37° C. in a 5% CO2 atmosphere. Seven days after infection the cytotoxicity and the antiviral activity was examined spectrophotometrically. To each well of the microtiter tray, 25 μl of a solution of MTT (3-(4,5-dimethylthiazol-2-yl)-2,5-diphenyltetrazolium bromide) was added. The trays were further incubated at 37° C. for 2 hours, after which the medium was removed from each cup. Solubilization of the formazan crystals was achieved by adding 100 μl 2-propanol. Complete dissolution of the formazan crystals were obtained after the trays have been placed on a plate shaker for 10 min. Finally, the absorbances were read in an eight-channel computer-controlled photometer (Multiskan MCC, Flow Laboratories) at two wavelengths (540 and 690 nm). The absorbance measured at 690 nm was automatically subtracted from the absorbance at 540 nm, so as to eliminate the effects of non-specific absorption.

Compound `O=CNCCN1CCC(Nc2nc3ccccc3n2Cc2ccccn2)CC1` [Compound 18] showed a melting point of 146 °C.
Same read-out and setting: then `CCC(CN)N1CCC(Nc2nc3ccccc3n2Cc2ccccn2)CC1` (centres unmarked) [Compound 23], with 112 °C.
On the same count and under the same terms, then `CC(C)C(N)CN1CCC(Nc2nc3ccccc3n2Cc2ccccn2)CC1` (centres unmarked) [Compound 24], with 115 °C.
In the case of `Cc1ccc(OCCO)c(Cn2c(NC3CCN(CCN)CC3)nc3ccccc32)n1` [Compound 27], the CC50 at 7 days in data set [1] was over 100 µM. Further, in data set [2], the “SI (selectivity index, CC50 divided by IC50)” value was over 7943 and the IC50 was found to be 0.0126 µM.
In turn, `CC(CN)N1CCC(Nc2nc3ccccc3n2C(C)c2ccccn2)CC1` (centres unmarked) [Compound 30] had a melting point of 85 °C.
The same measure, in the same setting: then `NCCCCN1CCC(Nc2nc3ccccc3n2Cc2ccccn2)CC1` [Compound 31], with 94 °C.
In data set [1] (mock-infected HeLa cells, seven days, tetrazolium-based colorimetric assay), `Cc1ccc(O)c(Cn2c(NC3CCN(CCN)CC3)nc3c(C)cccc32)n1` [Compound 357] gave a CC50 at 7 days of over 0.01 µM. For the same compound, in data set [2], the “SI (selectivity index, CC50 divided by IC50)” value was over 79 and the IC50 was found to be 0.00013 µM.
